Measured values: publication PMC10324399, “New Radiolabeled Exendin Analogues Show Reduced Renal Retention” (Molecular Pharmaceutics, 2023)

How the values were obtained:
[1] = co-administration; cited from earlier work
Description: Several successful strategies to reduce the renal uptake of radiolabeled peptides have been described. […]. […] These two studies evoked the question whether the translation of the methionine–isoleucine linker to exendin-4 could help to reduce the renal uptake of exendin. Based on literature, the additio ...

[2] = Serum stability of 68Ga- and 177Lu-labeled exendin-4 analogues in human serum; format: in vitro ADME; settings: ^177Lu-labeled peptide, human serum (1:10), 37 °C, after 24 h, acetonitrile precipitation, RP-HPLC
Procedure: Serum stability was analyzed as described in the Supporting Information.
The radiolabeled compounds were incubated in
10 human serum (1:10) at 37°C and samples were taken after 1 and 2 hour incubation for the 68Ga-labeled
12 Supernatant was obtained by precipitating the serum proteins by adding a 1:1 (v/v) volume of
13 acetonitrile, followed by centrifugation for 5 min at 3220xg. Subsequently, the supernatant was
14 analyzed using RP-HPLC. RP-HPLC was performed as described in the main text.

[3] = Dosimetry: kidney self-dose in mice (OLINDA/EXM, 25 g RADAR model); design: species or system mouse
Procedure: The kidney self-dose was calculated based on the activity distribution of the tracer in the kidneys. Time-integrated activity coefficients (MBq-h/MBq) were calculated using mono-exponential curve-fitting between the timepoints.

[4] = Dosimetry: absorbed kidney dose extrapolated to humans (OLINDA/EXM, 80 kg male reference model); design: species or system human; settings: radiolabeled tracer (^68Ga or ^177Lu), extrapolated from mice data
Description: The mice data were then used to extrapolate the expected absorbed kidney doses per injected activity to humans using the equation:[25],[26] [drawing 1] with [drawing 2] the percentage of the injected activity concentration, [drawing 3] the percentage of the injected activity per organ, m the organ mass, and M the total human or mouse body weight.

| Molecule | increase in renal uptake of radiolabeled exendin [1] [%] | serum stability [2] [% after 24 h] | reduction of estimated absorbed kidney dose vs reference without MI linker ([3]; in both mice and humans) [%] | estimated absorbed kidney dose per injected activity, mice ([3]; radiolabeled tracer (^68Ga or ^177Lu), from biodistribution in INS-1 tumor-bearing mice, OLINDA/EXM 2.1, 25 g RADAR model) [mSv/MBq] | estimated absorbed kidney dose per injected activity, humans [4] [mSv/MBq] |
| --- | --- | --- | --- | --- | --- |
| NCCCC[C@H](N)C(=O)O [lysine] | 6 |  |  |  |  |
| Lys^40[Mep((S-)DOTA-Met-Ile-Mal-)]exendin-4 [DOTA-MI-exendin-4] |  | >80 | 57 | 1974 | 0.89 |
